# Data taken from article PMC12257394, “Design, Synthesis, and Biological Evaluation of Ferrocenyl–Cyclo-(Gly‑L‑Pro) Hybrids Sensitizing Multidrug-Resistant Cancer Cells to Anticancer Agents” (ACS Medicinal Chemistry Letters, 2025).
# Entries after “also recorded” stand apart in the source; their conditions may differ.
# Columns and labels:
# ABCB1 = target: T1, ABCB1 (Homo sapiens, UniProt P08183); experiment: Calcein accumulation transport assay in SW620V cells; type: cell-based; conditions: 10 µM compound; for increase of intracellular retention of calcein: ABCB1, SW620V cells; for inhibition of ABCB1 activity (calcein accumulation assay): SW620V cells, n = 3
# T1 construct: ABCB1-overexpressing SW620V cells; endogenous in cells; host or cells: SW620V (vincristine-resistant variant of SW620, developed in the authors' laboratory by drug selection)
# From the text: To confirm the hypothesis of direct interaction between putative ABC protein inhibitors and transporter molecules, we conducted a series of experiments based on fluorescent probe transport as described previously. None of the compounds affected 2′,7′-bis(2-carboxyethyl)-5-(and-6)-carboxyfluorescein (BCECF) efflux out of SW620M cells, indicating the lack of interaction between the putative inhibitors and ABCC1 (Figure A). […] As anticipated, none of the newly synthesized compounds affected dye accumulation in drug-sensitive SW620 cells (data not shown).
# SW620 cells and their drug-resistant variants overexpressing ABCB1 (SW620V), ABCC1 (SW620M), or ABCG2 (SW620Mito) were trypsinized and suspended in a complete cell - culture medium prewarmed to 37°C at a final density of approximately 1 × 10^6/mL. The tested compounds were added from DMSO stock solutions to a final concentration of 10 µM.
# Respective samples were supplemented with a specific fluorescent marker (100 nM calcein AM for ABCB1, 100 nM BCECF AM for ABCC1, and 1 µM pheophorbide A for A BCG2). For the control, given protein-specific inhibitors (10 µM verapamil for ABCB1, 25 µM MK-571 for ABCC1, and 10 µM Ko143 for ABCG2) were added to parallel, tested compound-free, samples. For ABCB1 and ABCG2 assays (dye accumulation assays), intracellular fluorescence was measured by flow cytometry (FACSymphony A1, Becton, Dickinson and Company, New Jersey, USA) immediately after dye addition (time 0) and every 3–5 min up to approximately 30 min using a flow cytometer set at 488 nm excitation and 530/30 nm emission for the calcein/ABCB1 assay and 400 nm excitation and 655/8 nm emission for the pheophorbide A/ABCG2 assay. For the BCECF/ABCC1 assay (dye exclusion assay), the sample was preincubated at 37°C for 10 min, centrifuged (400 × g, 10 min, RT), and then resuspended in fresh medium. The intracellular BCECF concentration was then immediately measured at 488 nm excitation and 530/30 nm emission (time 0). Further measurements were performed at 15 - min intervals. All samples were incubated at 37°C between measurements. The accumulation/exclusion curves were plotted, and the slope of the initial accumulation rate or dye retention half time was evaluated using the GraphPad Prism software version 10 (GraphPad Software, Boston, Massachusetts USA). The difference between the a ccumulation rate/half time value for dye only and the tested compound/inhibitor samples was expressed as a given protein activity measure.
# [1] = Neutral red uptake viability assay, SW620V; type: cell-based, human; conditions: human, SW620V cells (vincristine-resistant), 72 h, n = 3, read-out: Cytotoxic activity IC50 (95% CI)
# Procedure: (§1) In general, compounds 4a–e exerted little or no cytotoxic effect on either SW620 or multidrug-resistant sublines even at 10 μM, with the remarkable exception of SW620C (cisplatin-selected variant of SW620) cells, which turned out to be relatively susceptible toward ferrocenyl 4a–c. […] This trend may reflect steric or electronic contributions to cellular uptake or interaction with intracellular targets. […] However, since E/Z isomeric data are currently available only for compound 4c, this hypothesis requires validation. To quantify this effect, IC50 values were determined (Table ). […]
# (§2) The normal lung fibroblast MRC-5 and colorectal adenocarcinoma SW620 cell lines used in this experiment were purchased from American Type Culture Collection (USA) via LGC […]
# (§3) Standards. Multidrug-resistant variants of SW620 cells were developed in our laboratory as described previously.10, 11 All cells were cultured under standard conditions (37°C, 5% CO2, 100% humidity) in high-glucose DMEM supplemented with GlutaMaxTM, HEPES (ThermoFisher Scientific, USA), and 10% fetal bovine serum (EURx, Poland). Cells were routinely tested for potential Mycoplasma contamination using the MycoProbe Mycoplasma Detection kit (R&D System, USA).
# (§4) In total, 104 cells in 100 µL of complete medium were plated per well of a 96-well plate and left overnight to allow cells to adhere to the surface. Then, the cells were exposed to a desired concentration of tested compound(s). Stock solutions were prepared in DMSO and used immediately. The final DMSO concentration was constant and nontoxic (0.1% v/v). After 70-h incubation, neutral red was added to the final concentration of 1 mM. After another 2 h, the medium was aspirated, and cells were washed twice with PBS. Dye was released using 100 µL of a solubilizer (1% acetic acid in 50% ethanol) on an orbital shaker (10 min). Absorbance was read at 540 nm using EnVision Multilabel Plate Reader (Perkin Elmer, USA). Results were expressed as % of control. The IC50 parameters were calculated using GraphPad Prism version 10 (GraphPad Software, Boston, Massachusetts USA).
# The enhancement of reversal potency (ERP) value determination
# For MDR reversal assays, cytotoxic agents were co-administered with compounds 4a–4e at equimolar concentrations in a range of 10 nM to 100 µM. IC₅₀ values were determined in ABCB1-overexpressing SW620 cell line variants. The enhancement of reversal potency (ERP) was calculated using the following formula: ERP = IC₅₀(drug)MDR / IC₅₀(drug + compound)MDR. All experiments were performed in triplicate (n = 3).
# [2] = Neutral red uptake viability assay, SW620Mito; type: cell-based, human; conditions: human, SW620Mito cells (mitoxantrone-resistant), 72 h, n = 3, read-out: Cytotoxic activity IC50 (95% CI)
# Procedure: as §1, §2, §3
# as §4, with “Massachusetts USA). […]” for “Massachusetts USA).”
# All experiments were performed in triplicate (n = 3).
# T1 sequence (P08183 whole entry): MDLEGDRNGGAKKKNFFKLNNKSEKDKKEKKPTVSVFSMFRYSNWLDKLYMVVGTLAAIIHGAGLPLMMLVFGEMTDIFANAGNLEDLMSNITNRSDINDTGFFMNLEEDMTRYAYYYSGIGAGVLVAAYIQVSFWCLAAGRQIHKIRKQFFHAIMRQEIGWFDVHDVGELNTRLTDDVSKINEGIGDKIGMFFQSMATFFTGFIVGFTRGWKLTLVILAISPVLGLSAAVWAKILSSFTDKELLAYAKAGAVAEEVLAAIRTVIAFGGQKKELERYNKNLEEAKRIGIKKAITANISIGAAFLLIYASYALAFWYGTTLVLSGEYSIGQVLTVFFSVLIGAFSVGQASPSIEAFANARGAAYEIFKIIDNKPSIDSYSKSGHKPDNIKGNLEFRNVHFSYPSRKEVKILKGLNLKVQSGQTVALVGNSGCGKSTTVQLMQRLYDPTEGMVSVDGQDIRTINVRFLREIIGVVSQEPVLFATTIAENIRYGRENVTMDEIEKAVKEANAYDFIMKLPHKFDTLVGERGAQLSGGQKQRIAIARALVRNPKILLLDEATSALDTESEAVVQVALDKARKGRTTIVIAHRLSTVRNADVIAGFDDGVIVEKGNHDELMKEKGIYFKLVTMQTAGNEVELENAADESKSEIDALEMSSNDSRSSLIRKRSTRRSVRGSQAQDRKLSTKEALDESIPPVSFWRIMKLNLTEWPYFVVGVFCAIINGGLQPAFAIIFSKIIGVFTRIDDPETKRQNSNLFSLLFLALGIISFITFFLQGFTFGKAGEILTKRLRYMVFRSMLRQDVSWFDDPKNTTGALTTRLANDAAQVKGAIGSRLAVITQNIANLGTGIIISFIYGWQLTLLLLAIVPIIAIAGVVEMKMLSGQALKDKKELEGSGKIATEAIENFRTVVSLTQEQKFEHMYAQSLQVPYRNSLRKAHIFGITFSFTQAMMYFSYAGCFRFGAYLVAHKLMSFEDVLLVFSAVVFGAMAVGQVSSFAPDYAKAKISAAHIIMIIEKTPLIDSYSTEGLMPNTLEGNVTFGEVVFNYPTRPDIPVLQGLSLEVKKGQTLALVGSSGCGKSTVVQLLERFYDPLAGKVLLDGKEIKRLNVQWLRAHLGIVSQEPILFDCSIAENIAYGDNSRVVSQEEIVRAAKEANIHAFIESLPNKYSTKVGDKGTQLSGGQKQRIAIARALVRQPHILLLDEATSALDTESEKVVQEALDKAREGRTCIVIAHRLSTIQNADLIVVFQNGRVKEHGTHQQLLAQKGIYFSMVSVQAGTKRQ
Compound,increase of intracellular retention of calcein (ABCB1),inhibition of ABCB1 activity (calcein accumulation assay) (ABCB1),IC50 at 72 h [1] [µM],IC50 at 72 h [2] [µM]
"O=C1N/C(=C\c2ccc(-[c-]3cccc3)cc2)C(=O)N2CCC[C@@H]12.[Fe+2].c1cc[cH-]c1 [(S,Z)-4d]",up to 3.4 fold,efficiently inhibited ABCB1 activity; also recorded: inhibit calcein efflux,,
"O=C1N/C(=C\c2ccccc2-[c-]2cccc2)C(=O)N2CCC[C@@H]12.[Fe+2].c1cc[cH-]c1 [(S,Z)-4b]",up to 3.4 fold,efficiently inhibited ABCB1 activity; also recorded: inhibit calcein efflux,,
"O=C1N/C(=C\c2ccccc2)C(=O)N2CCC[C@@H]12 [(S,Z)-4e]",,,> 100,> 100
"O=C1N/C(=C/c2ccccc2)C(=O)N2CCC[C@@H]12 [(S,E)-4e]",,,> 100,> 100
